Results published in patent US12629452B2, “Cranial suture regeneration” (University of Southern California, priority 2021, dated 2026).

Tested on: suture mesenchymal cells
Experiment: Western blot of Runx2 and OPN (osteogenic differentiation)
Assay type: cell-based, mouse
Conditions: 20 μM Wnt agonist 1 or 100 nM LY2090314, one or two weeks, vs vehicle
Description: Suture mesenchymal cells from one-month-old C57BL/6J mice were cultured with 20 μM Wnt agonist 1 (Selleck, S8178) or 100 nM LY2090314 (Selleck, S7063) for one or two weeks in αMEM. Medium was changed every other day. Total protein was extracted using a solution of loading buffer (Cell Signaling Technology, 7723S), protease inhibitor (Thermo Fisher Scientific, 1861278) and DTT (Cell Signaling Technology, 7723S), then separated by 10% SDS-PAGE and transferred to PVDF membranes (Millipore, ISEQ00005). Membranes were blocked with 5% non-fat dry milk dissolved in TBST for 2 hours at room temperature with gentle shaking, and then incubated with primary antibodies: anti-Runx2 (Cell signaling technology 12556, 1:1000), anti-OPN (Abcam ab63856, 1:500), and anti-βactin (Abcam ab20272, 1:1000) at 4° C. overnight followed by corresponding horseradish-peroxidase (HRP)-conjugated secondary antibodies. Protein expression was detected by Bio-Rad ChemiDoc Touch (Bio-Rad) and intensities of bands were quantitated by Image J software.

Row | SMILES | OPN expression level | Runx2 expression level
1 | O=C1NC(=O)C(c2cnc3ccccn23)=C1c1cn2c3c(cc(F)cc13)CN(C(=O)N1CCCCC1)CC2 [LY2090314] | significantly increased | significantly increased
2 | COc1cccc(-c2cc(NCc3ccc4c(c3)OCO4)nc(N)n2)c1 [Wnt agonist 1] | significantly increased | significantly increased
